In series [1] the test system is peritendinous, perineural adhesions. In words: Clinical effect of topically applied BAPN-F gauze. The format is in vivo. Conditions: 20-40 mg BAPN-F per 100 cm^2 of gauze, placed wet over the lesions. From the text:
In order to obtain long shelf life of BAPN medications the drug should be kept dry and out of contact with water. For this reason administration of BAPN as an ointment, in gels or solutions is rather impractical, as the medication has to be freshly prepared every 6-8 weeks. 6-8 weeks is the time of detection of the first decomposition product of BAPN into ammonia, aminonitrile and CO2. This invention can overcome the above problem by incorporating a solution with the known concentration of BAPN into the dressing material (gauze, collagen sponge) with a known surface area. The dressing material may be soaked with a known volume of BAPN solution, frozen and freeze dried to complete dryness.

Series [2] deals with full thickness dermal scar around the elbow. In words: Example 1: burn scar-elbow. Type of series: in vivo, human. As to conditions: 5.0 mM BAPN-F and/or 20-25 mM D-penicillamine jelly or BAPN-F gauze (40 mg/100 cm^2); four to six weeks. As to the method:
This restricts use. The hard scar is surgically "released" under general anesthesia by cutting in several places with or without a skin graft. The patient then has a lathyrogen applied and is placed in an elbow dynamic splint. This allows the elbow to be protected and at the same time to fully exercise the joint on a daily basis with or without the supervision of a physical therapist.
A lathyrogen jelly with 5.0 mM of BAPN-F and/or 20-25 mM D-penicillamine or a BAPN-F ]impregnated gauze (40 mg/100 cm^2 of gauze) is continuously applied to the wound during its healing phase beginning 4-8 days after surgical treatment and continued for four to six weeks in combination with physical therapy.

Series [3] relates to circumferential suture line scar of bladder and urethra. In words: Example 4: urethra-prostatic cancer. Type of series: in vivo, human. Conditions: silicone catheter coated with 5.0 mM BAPN-F; three weeks. Here is the method:
A patient with prostatic cancer detected with sonography and a candidate for total prostatectomy has the prostate removed and the cuff of the bladder sewn to the most proximal remaining portion of the urethra. This circumferential suture line often progresses to heavy scarring preventing complete emptying of the bladder. The scar is cut away under anesthesia and direct resectoscope vision and immediately stinted with a silicone catheter coated with 5.0 mM BAPN-F. The catheter remains in continuous direct contact with the new wound tissue during healing. The BAPN-F leaches from the surface of the catheter, thereby inhibiting hardening of the healing scar during the next three weeks. The catheter is changed on a weekly basis to renew the BAPN-F supply.

Series [4] relates to full thickness burn of the hand. In words: Example 5: burn scar-hand. The format is in vivo, human. As to conditions: jelly containing 5 mM/L BAPN-F; four to six weeks. Here is the method: A patient with a well healed full thickness burn of the hand has severe scarring of the fingers and hand in a claw-like form. The old scars are surgically released to create full mobility of the joints. The hand is placed in a "dynamic splint." The splint contains rubber band fixation to a rigid frame allowing the patient to exercise their fingers through a full range of motion. During the healing phase and on a daily basis, a jelly containing 5 mM/L of the lathyrogenic agent BAPN-F is continuously applied to the surgically "released" areas. The patient continues to exercise and use the dynamic splint during the healing phase over the next four to six weeks. […] The dynamic splint is removed. Healing is complete and range of motion restored.

A further series relates to urethral stenosis. In words: Example 7: urethra-infection. As to conditions: BAPN-F bonded silicone catheter; about six weeks. Type of series: in vivo, human. The source says: The old scar in the urethra is opened under direct surgical resection. Immediately afterward a silicone urethral bladder catheter is inserted. After one week, this catheter is exchanged for one with the lathyrogenic agent BAPN-F bonded onto its surface. The coated catheter is continuously maintained in place and changed ever week for about six weeks during the healing phase. During the healing phase new scar tissue is laid down. However, its strength is beneficially altered by the lathyrogen BAPN-F which inhibits the bonding of one protein scar fiber to the next protein scar fiber allowing the wound to be molded in the shape of the intraluminal stint (urinary bladder catheter).

Series [5] has as its system transection of the membranous urethra. In words: Example 8: urethra-trauma. As to conditions: coated silicone catheter; about six weeks. Type of series: in vivo, human males. The source says:
Following fractured hips, 5-10% of human males suffer transection of the membranous urethra as it leaves the bladder. This transection requires primary anastamosis with catheter stinting, often resulting in severe scar formation and secondary bladder outlet obstruction. Balloon dilation (pressure balloon) to create new wound tissue may be performed or direct surgical resection removes the narrowed scar tissue. After one week, the original bladder catheter is exchanged for a silicone catheter coated with either BAPN-F or another lathyrogenic agent such as D-Penicillamine, which inhibits cross-linking (strong bonding) between scar collagen fibers. The coated catheter is continuously maintained in place and changed once a week for about six weeks during the healing phase.

For a further series, the system named is tracheal injury. In words: Example 10: trachea. Type of series: in vivo, human. As to conditions: silastic stint coated with 5.0 mM BAPN-F or D-Penicillamine; five or six weeks. As to the method: The patient suffering tracheal injury either due to a tracheostomy on an emergency basis or secondary to an automobile accident has primary anastomosis of the trachea resulting in a severe scar and impairment of the airway. The scar is excised and an endotracheal silastic stint coated with 5.0 mM BAPN-F or D-Penicillamine is put in place after one week and continuously maintained and changed on a weekly basis for five or six weeks during the healing phase. The lathyrogen is incorporated in the newly formed and healing wound where it allows the newly formed scar to be soft, plastic-like and conform to the diameter of the endotracheal stint.

For series [6], the system named is common bile duct stenosis. In words: Example 11: common bile duct stenosis. Type of series: in vivo, human. As to conditions: BAPN-F coated silastic tube; six weeks. The source says:
The scar is partially resected and after one week an original silastic stint is exchanged for an intraluminal silastic tube coated with BAPN-F with one arm of the tube protruding into the duodenum. The BAPN-F leaches off the silastic tube and is incorporated into the newly formed scar, which is soft because BAPN-F blocks cross-linking. The tube is continuously maintained in place and on a weekly basis the patient returns to the gastroenterology lab where, under direct manipulation, the tube is exchanged every week for six weeks. Once healing is complete the tube is removed and the new lumen of the common bile duct is preserved. The patient is no longer jaundiced and fluids from the liver can pass into the duodenum uninhibited.

The next series has as its system burns in the esophagus. As to conditions: dogs, cited from earlier work.
The nature of series [7]: Decomposition of BAPN in ointment, gels or solutions. Type of series: physicochemical. Conditions: decomposition into ammonia, aminonitrile and CO2.
Series [8] concerns scarred and blocked fallopian tubes. In words: Example 2: fallopian tube stenosis-infertility. Type of series: in vivo, human. Conditions: BAPN-coated silastic tube stint; four to six week healing phase. From the text:
A patient having scarred and blocked fallopian tubes as a result of infection has incisions made in the scar tissue and a BAPN- coated silastic tube stint placed in the fallopian tube after one week and left in place during the healing phase. The stint is continuously maintained in contact with the fresh wound and is changed two or three times during the four to six week healing phase as the lathyrogenic agent leaches off the surface of the silastic stint and is incorporated into the newly healing scar. The newly formed scar takes the shape of the stint.

The test system of the next series is collagen crosslinking. Conditions: cited from earlier work.
The subject of series [9] is skin and other surrounding tissues. As to conditions: cited from earlier work.
The conditions of series [10]: systemic administration, humans; cited from earlier work.
For series [11] the following is noted: rabbit, in vivo. As to the method:
This example illustrates the efficacy of collagen- resorcinol-glutaraldehyde polymer as a BAPN-F delivery system. One hundred parts of medical grade purity collagen, prepared by a known procedure, is mixed with three hundred parts of water and heated until collagen dissolves to form a viscous solution. […] One milliliter of this mixture per kilogram of rabbit body weight was injected under the skin, after quick mixing of the appropriate volume of the mixture with 1/10 of its volume of 3 percent glutaraldehyde in a 5 ml plastic syringe. […] The rate of the release of the BAPN-F from the polymer was studied by direct measuring of the amount of BAPN-F in the blood, collected from the ear vein of the rabbit at time intervals shown in Table 1.
For comparison, the same amount of BAPN-F was injected under the skin of control rabbits as water solution.

Counter-ions that a name gives are not always drawn. Like-named read-outs stand apart in the source and are kept apart here.

For the molecule `N#CCCN` [BAPN-F, Beta-aminopropionitrile fumarate], the “clinical effect on fibrotic adhesions” value in series [1] is on record as “evident clinical effect of a topically applied gauze-placed wet over the lesions, such as peritendinous, perineural adhesions with prevention or reduction of the incidence of fibrotic adhesions”. The “range of motion at the elbow” value in series [2] is “the patient resumes full range of motion at the elbow”. For the same molecule, the “scarring of bladder-urethra suture line” value in [3] was “no new scarring takes place”. Also, the “range of hand motion” value in series [4] is on record as “full range of motion without further restriction of hand motion”. Further, the “urination after stint removal” value in the series with urethral stenosis is recorded as “normal unobstructed urination can proceed”. The “opening after catheter removal” value in [5] was “a normal sized opening is present”. The “scarring and airway dynamics” value with tracheal injury was “no further scarring takes place, the medication and stint is discontinued and the patient returns to normal airway dynamics”. Besides, in series [6], the “lumen of the common bile duct, jaundice” value is “the new lumen of the common bile duct is preserved. The patient is no longer jaundiced”. The “ingestion of food during treatment” value with burns in the esophagus (esophageal burns) is listed as “severe problems in the ingestion of food”. The toxicity result with burns in the esophagus (systemically introduced) is reported as “serious toxicity problems”.
In the case of `N#CCCN` [BAPN, Beta-aminopropionitrile], in [7], the “time of detection of the first decomposition product” value is 6-8 weeks. Besides, the “opening of the fallopian tube” value in series [8] is “the opening of the fallopian tube is preserved and egg and sperm transport can now cross the previously blocked fallopian tube”. The inhibition of crosslinking entry in the series on collagen crosslinking is on record as “crosslinking can be inhibited”. In addition, the “penetration of skin and other surrounding tissues (thickness)” value in series [9] is recorded as “a few millimeters in thickness”. In addition, in series [10], the “systemic tolerance (therapeutic vs. toxic concentrations)” value is “therapeutic and toxic concentrations are so close that they cannot be systemically tolerated by humans”.
With Water, the “time to maximum in serum” value in [11] is on record as “reaches a maximum in serum within two hours after injection”. In addition, the “Plasma Level (BAPN-F)” value was determined as 3.2 in series [11] (120 min); 2.9 in series [11] (240 min); 2.1 in series [11] (360 min); 1.0 in [11] (600 min); 0.1 in [11] (960 min); 0 in series [11] (2880 min). The “Plasma Level (BAPN-F)” value in series [11] (4320 min), in [11] (5760 min) and in series [11] (10080 min) was 0 in each case.
Consider `CC(C)(S)[C@@H](N)C(=O)O` [D-Penicillamine], for which, in series [2], the “range of motion at the elbow” value is given as “the patient resumes full range of motion at the elbow”. Moreover, in series [5], the “opening after catheter removal” value is reported as “a normal sized opening is present”. For the same molecule, the “scarring and airway dynamics” value with tracheal injury is “no further scarring takes place, the medication and stint is discontinued and the patient returns to normal airway dynamics”. Besides, the inhibition of crosslinking entry in the series on collagen crosslinking was “crosslinking can be inhibited”. The “systemic tolerance (therapeutic vs. toxic concentrations)” value in series [10] is “therapeutic and toxic concentrations are so close that they cannot be systemically tolerated by humans”.

These data come from patent US5120322A, “Method and apparatus for treatment of fibrotic lesions” (Lathrotec, Inc., priority 1990, dated 1992).
